# Read-outs that look alike come from different tables or passages of the source. Positions of bridges follow the written chain, without caps; N, C: chain ends. Non-standard residues stand in square brackets, D forms with d. Residues, ends and D or L forms follow the SMILES beside them. Lys(N3) = [N-]=[N+]=NCCCC[C@H](N)C(=O)O; R8 = C=CCCCCCC[C@@](C)(N)C(=O)O; Cba = N[C@@H](CC1CCC1)C(=O)O; S5 = C=CCCC[C@](C)(N)C(=O)O; βAla = NCCC(=O)O
# Tests used:
# [1] = EPSA; assay type: physicochemical
# [2] = tested on: Jump-In T-REx CHO-K1 BLA cells; assay: cells; assay type: cell-based; conditions: for EC50: read-out: TETCHO: Counterscreen EC50
# [3] = tested on: cells transiently transfected with the NanoLuc-HaloTag vector; assay: Nanoclick permeability assay; conditions: 4Hr
# Outline: (§1)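 Azido-peptide permeability was read as loss of NanoBRET signal (donor 450 nm, acceptor 610 nm) after adding NanoBret618-azide at 10 μM final.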
# [4] = in vitro; conditions: Nanoclick permeability assay EC50
# Outline: as §1
# [5] = tested on: p53 responsive β-lactamase reporter in HCT116 cells; assay: cells; assay type: cell-based
# Outline: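 Read-out used the ToxBLAzer Dual Screen for β-lactamase driven by a stably integrated p53-responsive reporter. Assay: 8000 HCT116 cells per well at 0.5% final DMSO. Reported numbers are geometric means over a minimum of three biological replicates.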
# [6] = Lactate dehydrogenase (LDH) release assay; assay type: cell-based
# Outline: (§2)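 HCT116 cells stably carrying a p53-responsive β-lactamase reporter were seeded at 8000 cells per well with a final DMSO level of 0.5%. Membrane integrity was assessed by lactate dehydrogenase release using a homogeneous fluorometric kit. Values are geometric means of at least three biological replicates.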
# [7] = tested on: HCT116 cells; assay: Lactate dehydrogenase (LDH) release assay; assay type: cell-based
# Outline: as §2
# [8] = Experimental LogD (partition coefficient); conditions: for logD: not stated, Partition Coeff LogD
# [9] = Solubility assay (kinetic solubility, PBS pH 7); assay type: physicochemical; conditions: pH 7, PBS; for solubility kinetic: pH 7, aqueous buffer, kinetic from dmso stock, read-out: Solubility
# Outline: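 Next, measure peak areas of sample and standard. Finally, multiply their ratio by the standard concentration to obtain solubility (µM).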
# [10] = Circular dichroism (CD) helicity; assay type: physicochemical
# Experimental: A total of 5 µL of the 10 mM stock peptide was mixed with 45 µL of 100% methanol, and dried for 2 h in the SpeedVac concentrator (Thermo Scientific). The dried peptide was reconstituted in a buffer (1 mM Hepes pH 7.4 and 5% methanol) to a concentration of 1 mM. The peptide sample was placed in a quartz cuvette with a path length of 0.2 cm. The peptide concentration was determined by the absorbance of the peptide at […]. The CD spectrum was recorded from 300 to 190 nm using the Chirascan-plus qCD machine (Applied Photophysics, Surrey, UK), at 25 °C. All experiments were done in duplicates. The CD spectrum was converted to mean residue ellipticity before deconvolution and estimation of the secondary structure components of the peptide using the CDNN software (distributed by Applied Photophysics). Measurements were taken at least twice and were reported as arithmetic means.
# [11] = target: T1, human Mdm2 1–125 (Homo sapiens, UniProt Q00987); assay: Mdm2 binding by competitive fluorescence anisotropy assay (FP binding); conditions: read-out: FP binding assay KD
# T1 construct: GST (N); His6 (internal); TEV cleavage site (ENLYFQG) (internal); made in house; host or cells: BL21 (DE3) Rosetta T1R Escherichia coli
# Description: The TEV (tobacco etch virus) cleavage site was changed from ENLYFQS to ENLYFQG to give a fusion protein with the following sequence:
# [P] is the protein concentration (Mdm2), [L] is the labeled peptide concentration, r is the anisotropy measured, r0 is the anisotropy of the free peptide, rb is the anisotropy of the Mdm2–FAM-labeled peptide complex, Kd is the dissociation constant, [L]t is the total FAM labeled peptide concentration, and [P]t is the total Mdm2 concentration. […] This value was then used to determine apparent Kd values of the respective competing ligands in subsequent competition assays in fluorescence anisotropy experiments.
# The competing molecules were then titrated against the complex of the FAM-labeled peptide and protein. Apparent Kd values were determined by fitting the experimental data to equations shown below:2 r=ro+(rb−ro)×2(d^2−3e)cos(θ/3)−9/3Kd1+2(d^2−3e)cos(θ/3)−d 3 d=Kd1+Kd2+[L]st+[L]t−Pt 4 e=Lt−PtKd1+Lst+PtKd2+Kd1Kd2 5 f=−Kd1Kd2[P]t 6 θ=arcos−2d^3+9de−27f/2(d^2−3e)^3
# [L]st and [L]t denote labeled ligand and total unlabeled ligand input concentrations, respectively. Kd2 is the dissociation constant of the interaction between the unlabeled ligand and the protein. In all competition experiments, it is assumed that [P]t > [L]st, otherwise considerable amounts of free labeled ligand would always be present and would interfere with measurements. […] The FAM-labeled peptide was dissolved in dimethyl sulfoxide (DMSO) at 1 mM and diluted into experimental buffer. Readings were carried out with an Envision Multilabel Reader (PerkinElmer). […] Curve-fitting was carried out using Prism 4.0 (GraphPad). […] Negative control titrations of the ligands under investigation were also carried out with the fluorescently labeled peptide (in the absence of Mdm2) to ensure no interactions were occurring between the ligands and the FAM-labeled peptide. […] Measurements were taken a minimum of three times (biological replicates) and values are reported as geometric means of the replicates.
# [12] = 0% FBS 4Hr, read-out: p53 reporter assay: EC50
# [13] = 10% FBS 4Hr, read-out: p53 reporter assay: EC50
# [14] = 10% FBS 16Hr, read-out: p53 reporter assay: EC50
# [15] = 0% FBS 4Hr, read-out: p53 reporter assay EC50
# T1 sequence (Q00987 with tags, fused parts or gaps): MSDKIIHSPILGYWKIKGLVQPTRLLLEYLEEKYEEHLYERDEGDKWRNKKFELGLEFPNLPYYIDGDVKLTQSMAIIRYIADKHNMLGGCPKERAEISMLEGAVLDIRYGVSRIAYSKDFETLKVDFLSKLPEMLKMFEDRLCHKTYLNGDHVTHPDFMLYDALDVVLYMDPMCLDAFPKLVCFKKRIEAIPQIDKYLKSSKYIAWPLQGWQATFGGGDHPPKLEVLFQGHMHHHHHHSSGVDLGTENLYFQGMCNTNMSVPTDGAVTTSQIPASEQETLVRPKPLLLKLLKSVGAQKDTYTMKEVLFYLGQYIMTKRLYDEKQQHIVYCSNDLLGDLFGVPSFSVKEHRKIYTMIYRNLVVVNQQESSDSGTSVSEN
SMILES,TETCHO: Counterscreen % Effect ([2]; 0% FBS 4Hr) [%],EC50 ([2]; 0% FBS 4Hr) [µM],TETCHO: Counterscreen % Effect ([2]; 10% FBS 4Hr) [%],EC50 ([2]; 10% FBS 4Hr) [µM],TETCHO: Counterscreen % Effect ([2]; 10% FBS 16Hr) [%],EC50 ([2]; 10% FBS 16Hr) [µM],Nanoclick permeability assay % Effect [3] [%],cell entry EC50 [4] [µM],p53 reporter assay: % Effect ([5]; 0% FBS 4Hr) [%],"EC50 [5, 12] [µM]",p53 reporter assay: % Effect ([5]; 10% FBS 4Hr) [%],"EC50 [5, 13] [µM]",p53 reporter assay: % Effect ([5]; 10% FBS 16Hr) [%],"EC50 [5, 14] [µM]",EC50 ([6]; LDH: Cytotoxicity assay: EC50) [µM],EC50 [7] [µM],logD [8],solubility kinetic [9] [µM],"EC50 [5, 15] [µM]",Kd [11] [µM],also measured
CC(=O)N[C@H](C(=O)N[C@@H](CO)C(=O)N[C@@H](Cc1ccccc1)C(=O)N[C@]1(C)CCCCCCC=CCCC[C@@](C)(C(N)=O)NC(=O)[C@H](CC(C)C)NC(=O)[C@H](CC(C)C)NC(=O)[C@H](C)NC(=O)[C@H](Cc2c[nH]c3ccccc23)NC(=O)[C@H](Cc2ccc(O)cc2)NC(=O)[C@H](CCC(=O)O)NC1=O)[C@@H](C)O [MP-090],137.4,21.2,106.1,31.5,108.5,32.9,42.09,> 10,110.7,6.5,88.51,26.2,4.432,> 50.4,> 50.7,50.5,2.69,77,,,EPSA ([1]; EPSA): 201 A^2
CC(=O)N[C@@H](CC(C)C)C(=O)N[C@H](C(=O)N[C@@H](Cc1ccccc1)C(=O)N[C@]1(C)CCCCCCC=CCCC[C@@](C)(C(=O)N[C@@H](C)C(=O)N[C@@H](C)C(=O)N[C@@H](C)C(=O)N[C@@H](C)C(=O)N[C@@H](C)C(=O)N[C@@H](C)C(N)=O)NC(=O)[C@H](CC(C)C)NC(=O)[C@H](CCC(N)=O)NC(=O)[C@H](C)NC(=O)[C@H](Cc2c[nH]c3ccccc23)NC(=O)[C@H](Cc2ccc(O)cc2)NC(=O)[C@H](CCC(=O)O)NC1=O)[C@@H](C)O [MP-688] (Ac-LTF[R8]EYWAQL[S5]AAAAAA-NH2; staple 4-11),,> 50.4,,,,> 50.4,,,,,,,,,,,,,0.157,,"EC50 ([5]; 10% FBS 16Hr, read-out: p53 reporter assay EC50): 1.35 µM; EC50 ([5]; read-out: Cell EC50 (4 hr, 0% FBS), p53 reporter assay, 4 hr, 0% FBS): 0.16 µM; EC50 ([5]; read-out: Cell EC50 (16 hr, 10% FBS), p53 reporter assay, 16 hr, 10% FBS): 1.3 µM; EC50 ([6]; 0% FBS 4Hr, read-out: LDH: Cytotoxicity assay EC50): > 50.7 µM; EC50 ([6]; 10% FBS 16Hr, read-out: LDH: Cytotoxicity assay EC50): > 50.7 µM; CD % Helicity [10]: 49.8%; Aqueous solution helicity ([10]; circular dichroism): 49.8%"
CC(=O)N[C@@H](CCCCN)C(=O)NCCCCCC(=O)N[C@H](C(=O)N[C@@H](CO)C(=O)N[C@@H](Cc1ccccc1)C(=O)N[C@]1(C)CCCCCCC=CCCC[C@@](C)(C(N)=O)NC(=O)[C@H](CC(C)C)NC(=O)[C@H](CC(C)C)NC(=O)[C@H](C)NC(=O)[C@H](Cc2c[nH]c3ccccc23)NC(=O)[C@H](Cc2ccc(O)cc2)NC(=O)[C@H](CCC(=O)O)NC1=O)[C@@H](C)O [MP-716],43.21,> 50.4,45.82,> 50.4,13.83,> 50.4,9.756,> 10,93.75,14.1,161.5,15.9,18.31,> 50.4,> 50.7,,,,,0.011,Partition Coeff LogD [8]: Poorly Behaved; Solubility [9]: Poorly Behaved
CC(C)C[C@H](NC(=O)CCNC(=O)[C@H](CCCCN=[N+]=[N-])NC(=O)CNC(=O)[C@H](CC(=O)O)NC(=O)[C@H](CC(C)C)NC(=O)[C@H](CCCCN)NC(=O)[C@@H](NC(=O)[C@H](CCCNC(=N)N)NC(=O)[C@H](CCCCN)NC(=O)[C@H](C)NC(=O)[C@H](C)NC(=O)[C@@H]1CCCN1)C(C)C)C(=O)N[C@H](C(=O)N[C@@H](Cc1ccccc1)C(=O)N[C@]1(C)CCCCCCC=CCCC[C@@](C)(C(=O)N[C@@H](CO)C(=O)N[C@@H](C)C(=O)N[C@@H](C)C(N)=O)NC(=O)[C@H](CC2CCC2)NC(=O)[C@H](CCC(N)=O)NC(=O)[C@H](C)NC(=O)[C@H](Cc2c[nH]c3ccccc23)NC(=O)[C@H](Cc2ccc(O)cc2)NC(=O)[C@H](CCC(=O)O)NC1=O)[C@@H](C)O [MP-879] (H-PAAKRVKLDG[Lys(N3)][βAla]LTF[R8]EYWAQ[Cba][S5]SAA-NH2; staple 16-23),42.86,35.8,,,,,134.8,0.555,,,,,,,,,2.38,162,2.4,0.0386,"TETCHO: Counterscreen % Effect ([2]; 0% FBS 16Hr): 28.78%; EC50 ([2]; 0% FBS 16Hr): > 50 µM; EC50 ([5]; 0% FBS 16Hr, read-out: p53 reporter assay EC50): 1.14 µM; EC50 ([6]; LDH: Cytotoxicity assay EC50): > 50 µM"
CC(=O)N[C@@H](CCCCN)C(=O)NCCCCCC(=O)N[C@H](C(=O)N[C@@H](CO)C(=O)N[C@@H](Cc1ccccc1)C(=O)N[C@]1(C)CCCCCCC=CCCC[C@@](C)(C(=O)N[C@@H](CCC(=O)O)C(=O)N[C@@H](CC(N)=O)C(=O)N[C@@H](Cc2ccccc2)C(N)=O)NC(=O)[C@H](CC(C)C)NC(=O)[C@H](CC(C)C)NC(=O)[C@H](C)NC(=O)[C@H](Cc2c[nH]c3ccccc23)NC(=O)[C@H](Cc2ccc(O)cc2)NC(=O)[C@H](CCC(=O)O)NC1=O)[C@@H](C)O [MP-82094],52.98,45.8,49.08,20,82.5,7.15,69.87,,109.5,1.55,125.5,3.92,78.69,16.1,,50.5,,,,,EPSA [1]: Poorly Behaved

# Source: article PMC10786919, “Design-rules for stapled peptides with in vivo activity and their application to Mdm2/X antagonists” (Nature Communications, 2024)
